Laboratory results from patent publication US11542240B2, “STK19 inhibitors for treatment of cancer” (TRUSTEES OF BOSTON UNIVERSITY, priority 2018, dated 2023).
Read-outs that look alike come from different tables or passages of the source.

How the values were obtained:
Assay in all cases: biochemical
Format in all cases: binding
[1] = biological target: panel of 468 diverse kinases (Homo sapiens, UniProt O14920); settings: IKK-beta; 1000 nM; read-out: Percent Control
[2] = biological target: panel of 468 diverse kinases (Homo sapiens, UniProt O76039); settings: CDKL5; 1000 nM; read-out: Percent Control
[3] = biological target: panel of 468 diverse kinases (Homo sapiens, UniProt P00519, H396P); settings: 1000 nM, read-out: Percent Control
[4] = biological target: panel of 468 diverse kinases (Homo sapiens, UniProt P00533, G719C); settings: EGFR(G719C); 1000 nM; read-out: Percent Control
Sequence of panel of 468 diverse kinases (Homo sapiens, UniProt P00533, G719C) (P00533 25-1210 G719C limits assumed): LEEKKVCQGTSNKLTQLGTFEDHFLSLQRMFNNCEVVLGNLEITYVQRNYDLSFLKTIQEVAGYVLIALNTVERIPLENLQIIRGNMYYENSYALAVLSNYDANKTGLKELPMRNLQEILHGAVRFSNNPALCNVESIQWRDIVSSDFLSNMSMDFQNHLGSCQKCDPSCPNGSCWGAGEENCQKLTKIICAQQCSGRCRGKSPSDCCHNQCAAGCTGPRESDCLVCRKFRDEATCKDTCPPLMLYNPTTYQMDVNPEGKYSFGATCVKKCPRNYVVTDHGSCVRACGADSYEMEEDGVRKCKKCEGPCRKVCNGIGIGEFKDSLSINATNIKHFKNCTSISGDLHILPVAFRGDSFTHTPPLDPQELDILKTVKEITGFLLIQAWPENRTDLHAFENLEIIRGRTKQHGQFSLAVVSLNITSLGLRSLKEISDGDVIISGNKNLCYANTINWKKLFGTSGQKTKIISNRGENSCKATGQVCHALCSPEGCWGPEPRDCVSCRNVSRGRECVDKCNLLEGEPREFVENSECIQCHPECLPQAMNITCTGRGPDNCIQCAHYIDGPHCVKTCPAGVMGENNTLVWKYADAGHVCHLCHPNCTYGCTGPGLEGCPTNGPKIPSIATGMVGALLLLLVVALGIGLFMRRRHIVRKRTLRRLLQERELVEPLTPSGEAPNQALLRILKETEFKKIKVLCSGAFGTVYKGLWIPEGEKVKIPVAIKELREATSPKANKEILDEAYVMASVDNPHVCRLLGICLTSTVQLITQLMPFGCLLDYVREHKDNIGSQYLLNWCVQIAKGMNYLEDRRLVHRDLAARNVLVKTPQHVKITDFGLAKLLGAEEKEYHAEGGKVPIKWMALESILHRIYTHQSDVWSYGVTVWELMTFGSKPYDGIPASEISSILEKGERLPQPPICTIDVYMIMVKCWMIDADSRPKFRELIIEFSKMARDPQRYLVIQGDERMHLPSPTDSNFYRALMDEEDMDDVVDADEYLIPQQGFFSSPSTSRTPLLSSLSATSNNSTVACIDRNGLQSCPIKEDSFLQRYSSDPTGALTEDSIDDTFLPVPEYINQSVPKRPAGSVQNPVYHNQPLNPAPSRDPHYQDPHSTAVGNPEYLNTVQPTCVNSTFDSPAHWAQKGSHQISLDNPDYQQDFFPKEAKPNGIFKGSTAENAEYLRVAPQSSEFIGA

[5] = biological target: panel of 468 diverse kinases (Homo sapiens, UniProt P00533, T790M); settings: EGFR(T790M); 1000 nM; read-out: Percent Control
Sequence of panel of 468 diverse kinases (Homo sapiens, UniProt P00533, T790M) (P00533 25-1210 T790M limits assumed): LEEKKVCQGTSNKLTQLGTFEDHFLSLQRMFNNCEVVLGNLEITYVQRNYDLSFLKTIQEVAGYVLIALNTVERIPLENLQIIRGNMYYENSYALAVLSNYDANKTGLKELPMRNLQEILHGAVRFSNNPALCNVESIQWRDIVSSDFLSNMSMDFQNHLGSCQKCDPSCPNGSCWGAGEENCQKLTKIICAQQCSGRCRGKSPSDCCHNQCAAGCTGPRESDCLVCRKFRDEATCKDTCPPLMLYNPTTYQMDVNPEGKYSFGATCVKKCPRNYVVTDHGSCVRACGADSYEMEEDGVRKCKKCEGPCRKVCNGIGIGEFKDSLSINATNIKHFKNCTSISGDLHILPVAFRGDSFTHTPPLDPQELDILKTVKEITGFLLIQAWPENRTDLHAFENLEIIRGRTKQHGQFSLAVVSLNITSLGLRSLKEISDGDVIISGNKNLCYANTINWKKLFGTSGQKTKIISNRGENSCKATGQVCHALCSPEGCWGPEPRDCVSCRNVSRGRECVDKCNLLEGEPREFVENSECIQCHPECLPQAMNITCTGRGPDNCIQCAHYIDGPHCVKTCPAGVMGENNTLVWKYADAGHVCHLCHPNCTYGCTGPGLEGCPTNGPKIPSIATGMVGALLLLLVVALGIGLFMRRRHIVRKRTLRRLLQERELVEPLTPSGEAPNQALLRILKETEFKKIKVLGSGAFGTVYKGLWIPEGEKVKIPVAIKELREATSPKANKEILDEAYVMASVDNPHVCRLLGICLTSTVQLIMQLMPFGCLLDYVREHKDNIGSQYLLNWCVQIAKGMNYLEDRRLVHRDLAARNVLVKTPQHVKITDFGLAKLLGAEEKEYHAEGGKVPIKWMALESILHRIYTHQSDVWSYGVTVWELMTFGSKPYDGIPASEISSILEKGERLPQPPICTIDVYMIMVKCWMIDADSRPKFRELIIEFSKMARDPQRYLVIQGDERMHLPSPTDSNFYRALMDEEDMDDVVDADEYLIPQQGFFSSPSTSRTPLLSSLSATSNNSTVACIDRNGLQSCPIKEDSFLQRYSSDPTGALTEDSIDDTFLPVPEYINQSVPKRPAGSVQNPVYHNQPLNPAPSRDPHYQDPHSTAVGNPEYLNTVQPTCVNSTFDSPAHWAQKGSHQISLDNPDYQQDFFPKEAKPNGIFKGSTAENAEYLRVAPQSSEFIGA

[6] = biological target: panel of 468 diverse kinases (Homo sapiens, UniProt P06213); settings: INSR; 1000 nM; read-out: Percent Control
Sequence of panel of 468 diverse kinases (Homo sapiens, UniProt P06213) (P06213 28-758 limits assumed): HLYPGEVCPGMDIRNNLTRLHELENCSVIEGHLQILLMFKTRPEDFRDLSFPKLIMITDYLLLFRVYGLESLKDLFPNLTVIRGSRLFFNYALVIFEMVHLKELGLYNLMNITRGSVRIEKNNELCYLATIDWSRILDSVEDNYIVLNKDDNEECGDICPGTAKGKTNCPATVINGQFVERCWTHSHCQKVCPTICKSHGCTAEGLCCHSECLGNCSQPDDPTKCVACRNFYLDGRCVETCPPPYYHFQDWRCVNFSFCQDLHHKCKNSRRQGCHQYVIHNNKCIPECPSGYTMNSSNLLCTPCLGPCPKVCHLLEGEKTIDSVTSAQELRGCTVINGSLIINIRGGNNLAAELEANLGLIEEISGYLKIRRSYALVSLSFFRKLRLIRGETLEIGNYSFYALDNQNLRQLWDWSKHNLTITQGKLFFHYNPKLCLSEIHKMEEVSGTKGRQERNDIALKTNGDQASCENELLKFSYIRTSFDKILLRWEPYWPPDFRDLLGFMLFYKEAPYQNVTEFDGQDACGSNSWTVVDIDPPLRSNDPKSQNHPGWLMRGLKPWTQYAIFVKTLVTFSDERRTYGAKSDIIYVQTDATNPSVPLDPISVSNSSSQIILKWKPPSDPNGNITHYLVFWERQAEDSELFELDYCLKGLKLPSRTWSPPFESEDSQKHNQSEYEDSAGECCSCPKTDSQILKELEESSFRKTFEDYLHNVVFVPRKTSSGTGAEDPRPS
Sequence of panel of 468 diverse kinases (Homo sapiens, UniProt P06213) (P06213 763-1382 limits assumed): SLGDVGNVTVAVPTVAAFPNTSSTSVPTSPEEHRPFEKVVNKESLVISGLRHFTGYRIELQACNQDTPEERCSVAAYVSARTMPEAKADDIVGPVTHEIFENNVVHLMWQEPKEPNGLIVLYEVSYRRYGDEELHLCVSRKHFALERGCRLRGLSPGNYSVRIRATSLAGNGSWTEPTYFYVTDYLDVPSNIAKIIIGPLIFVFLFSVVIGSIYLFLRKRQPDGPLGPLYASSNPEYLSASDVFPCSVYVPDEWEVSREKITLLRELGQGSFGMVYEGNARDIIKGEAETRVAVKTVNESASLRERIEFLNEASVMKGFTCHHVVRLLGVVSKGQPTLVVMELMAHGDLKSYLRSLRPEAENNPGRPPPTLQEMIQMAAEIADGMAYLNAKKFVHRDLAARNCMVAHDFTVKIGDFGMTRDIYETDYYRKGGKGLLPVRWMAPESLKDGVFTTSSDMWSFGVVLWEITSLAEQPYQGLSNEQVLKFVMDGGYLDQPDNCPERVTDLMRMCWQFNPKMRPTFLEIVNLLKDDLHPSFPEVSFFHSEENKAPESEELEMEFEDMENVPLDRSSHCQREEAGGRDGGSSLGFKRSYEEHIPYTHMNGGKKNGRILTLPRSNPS

[7] = biological target: panel of 468 diverse kinases (Homo sapiens, UniProt P07332); settings: FES; 1000 nM; read-out: Percent Control
[8] = biological target: panel of 468 diverse kinases (Homo sapiens, UniProt P07948); settings: LYN; 1000 nM; read-out: Percent Control
[9] = biological target: panel of 468 diverse kinases (Homo sapiens, UniProt P29597); settings: 1000 nM, read-out: Percent Control
[10] = biological target: panel of 468 diverse kinases (Homo sapiens, UniProt P36888, N841I); settings: FLT3(N841I); 1000 nM; read-out: Percent Control
[11] = biological target: panel of 468 diverse kinases (Homo sapiens, UniProt P48736); settings: PIK3CG; 1000 nM; read-out: Percent Control
[12] = biological target: panel of 468 diverse kinases (Homo sapiens, UniProt P52333); settings: JAK3(JH1domain-catalytic); 1000 nM; read-out: Percent Control
[13] = biological target: panel of 468 diverse kinases (Homo sapiens, UniProt Q02156); settings: PRKCE; 1000 nM; read-out: Percent Control
[14] = biological target: panel of 468 diverse kinases (Homo sapiens, UniProt Q02750); settings: MEK1; 1000 nM; read-out: Percent Control
[15] = biological target: panel of 468 diverse kinases (Homo sapiens, UniProt Q13237); settings: PRKG2; 1000 nM; read-out: Percent Control
Sequence of panel of 468 diverse kinases (Homo sapiens, UniProt Q13237) (Q13237 2-762 limits assumed): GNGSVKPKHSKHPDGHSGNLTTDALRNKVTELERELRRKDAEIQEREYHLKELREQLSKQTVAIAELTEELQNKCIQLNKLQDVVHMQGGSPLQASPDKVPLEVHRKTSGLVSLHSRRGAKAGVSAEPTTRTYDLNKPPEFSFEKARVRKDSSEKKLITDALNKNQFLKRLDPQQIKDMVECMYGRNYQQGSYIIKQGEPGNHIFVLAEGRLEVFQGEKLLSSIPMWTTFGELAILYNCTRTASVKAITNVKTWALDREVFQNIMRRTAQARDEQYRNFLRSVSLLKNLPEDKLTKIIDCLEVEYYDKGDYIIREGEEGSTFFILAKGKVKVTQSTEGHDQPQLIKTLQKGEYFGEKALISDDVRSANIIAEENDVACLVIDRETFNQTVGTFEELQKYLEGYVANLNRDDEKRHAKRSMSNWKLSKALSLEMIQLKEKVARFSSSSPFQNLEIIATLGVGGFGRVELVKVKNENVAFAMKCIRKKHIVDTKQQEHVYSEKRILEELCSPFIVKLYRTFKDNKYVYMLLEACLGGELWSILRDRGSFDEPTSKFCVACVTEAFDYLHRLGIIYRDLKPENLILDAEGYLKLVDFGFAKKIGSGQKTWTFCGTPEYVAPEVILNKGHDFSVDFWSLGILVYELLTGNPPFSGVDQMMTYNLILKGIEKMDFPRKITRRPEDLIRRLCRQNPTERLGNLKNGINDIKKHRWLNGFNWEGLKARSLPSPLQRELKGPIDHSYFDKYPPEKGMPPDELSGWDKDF

[16] = biological target: panel of 468 diverse kinases (Homo sapiens, UniProt Q13546); settings: RIPK1; 1000 nM; read-out: Percent Control
[17] = biological target: panel of 468 diverse kinases (Homo sapiens, UniProt Q13627); settings: DYRKIV; 1000 nM; read-out: Percent Control
[18] = biological target: panel of 468 diverse kinases (Homo sapiens, UniProt Q16513); settings: PKN2; 1000 nM; read-out: Percent Control
[19] = biological target: panel of 468 diverse kinases (Homo sapiens, UniProt Q16816); settings: PHKG1; 1000 nM; read-out: Percent Control
[20] = biological target: panel of 468 diverse kinases (Homo sapiens, UniProt Q6P3R8); settings: NEK5; 1000 nM; read-out: Percent Control
[21] = biological target: panel of 468 diverse kinases (Homo sapiens, UniProt Q6PHR2); settings: ULK3; 1000 nM; read-out: Percent Control
[22] = biological target: panel of 468 diverse kinases (Homo sapiens, UniProt Q86UX6); settings: YANK3; 1000 nM; read-out: Percent Control
[23] = biological target: panel of 468 diverse kinases (Homo sapiens, UniProt Q8NI60); settings: ADCK3; 1000 nM; read-out: Percent Control
Sequence of panel of 468 diverse kinases (Homo sapiens, UniProt Q8NI60) (Q8NI60 163-647 limits assumed): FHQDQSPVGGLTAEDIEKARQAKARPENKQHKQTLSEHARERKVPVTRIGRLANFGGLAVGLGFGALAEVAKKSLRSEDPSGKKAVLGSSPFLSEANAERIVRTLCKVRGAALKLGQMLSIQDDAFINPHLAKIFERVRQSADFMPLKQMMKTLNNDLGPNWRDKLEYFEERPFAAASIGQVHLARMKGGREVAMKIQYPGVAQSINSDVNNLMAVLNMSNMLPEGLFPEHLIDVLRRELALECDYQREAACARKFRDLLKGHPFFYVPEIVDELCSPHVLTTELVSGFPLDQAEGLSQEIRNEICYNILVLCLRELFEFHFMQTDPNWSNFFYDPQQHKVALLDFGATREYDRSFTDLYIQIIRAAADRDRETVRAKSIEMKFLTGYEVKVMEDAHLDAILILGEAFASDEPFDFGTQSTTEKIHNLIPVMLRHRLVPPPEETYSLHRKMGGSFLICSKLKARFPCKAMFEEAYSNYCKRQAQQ

[24] = biological target: panel of 468 diverse kinases (Homo sapiens, UniProt Q96D53); settings: ADCK4; 1000 nM; read-out: Percent Control
[25] = biological target: panel of 468 diverse kinases (Homo sapiens, UniProt Q96SB4); settings: SRPK1; 1000 nM; read-out: Percent Control
[26] = biological target: panel of 468 diverse kinases (Homo sapiens, UniProt Q99558); settings: NIK; 1000 nM; read-out: Percent Control
[27] = biological target: panel of 468 diverse kinases (Homo sapiens, UniProt Q9P286); settings: PAK7; 1000 nM; read-out: Percent Control
[28] = biological target: panel of 468 diverse kinases (Homo sapiens, UniProt Q9UEE5); settings: DRAK1; 1000 nM; read-out: Percent Control
[29] = biological target: panel of 468 diverse kinases (Homo sapiens, UniProt Q9UEW8); settings: STK39; 1000 nM; read-out: Percent Control
[30] = biological target: panel of 468 diverse kinases (Homo sapiens, UniProt Q9UIK4); settings: DAPK2; 1000 nM; read-out: Percent Control
[31] = biological target: panel of 468 diverse kinases (Homo sapiens, UniProt Q9UPE1); settings: SRPK3; 1000 nM; read-out: Percent Control

SMILES: COc1cc2nc(NC3CC3)nc(NC3CCN(C(C)C)CC3)c2cc1OC [Formula IV]
- remaining activity at 1 µM [1]: 66%
- remaining activity at 1 µM [2]: 52%
- remaining activity at 1 µM ([3]; ABL1 (H396P)-nonphosphorylated): 69%
- remaining activity at 1 µM ([3]; ABL1(H396P)-phosphorylated): 68%
- remaining activity at 1 µM [4]: 91%
- remaining activity at 1 µM [5]: 44%
- remaining activity at 1 µM [6]: 57%
- remaining activity at 1 µM [7]: 100%
- remaining activity at 1 µM [8]: 77%
- remaining activity at 1 µM ([9]; TYK2(JH1domain-catalytic)): 37%
- remaining activity at 1 µM ([9]; TYK2(JH2domain-pseudokinase)): 79%
- remaining activity at 1 µM [10]: 63%
- remaining activity at 1 µM [11]: 83%
- remaining activity at 1 µM [12]: 70%
- remaining activity at 1 µM [13]: 100%
- remaining activity at 1 µM [14]: 63%
- remaining activity at 1 µM [15]: 88%
- remaining activity at 1 µM [16]: 87%
- remaining activity at 1 µM [17]: 60%
- remaining activity at 1 µM [18]: 98%
- remaining activity at 1 µM [19]: 90%
- remaining activity at 1 µM [20]: 90%
- remaining activity at 1 µM [21]: 71%
- remaining activity at 1 µM [22]: 94%
- remaining activity at 1 µM [23]: 100%
- remaining activity at 1 µM [24]: 100%
- remaining activity at 1 µM [25]: 97%
- remaining activity at 1 µM [26]: 46%
- remaining activity at 1 µM [27]: 92%
- remaining activity at 1 µM [28]: 96%
- remaining activity at 1 µM [29]: 58%
- remaining activity at 1 µM [30]: 93%
- remaining activity at 1 µM [31]: 100%
